# From PubChem BioAssay (NCI)
#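 In this assay, cells in 96-well plates receive the compound at five concentrations for 48 hours. Endpoints are linearly interpolated between the surrounding concentrations. TGI marks complete inhibition of growth.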
# Tests used:
# Assay in all cases: DTP human tumour cell line panel, 48 h
# SNB-19 CNS = tested on: SNB-19 CNS
# NCI-H23 lung = tested on: NCI-H23 lung
# SK-MEL-2 melanoma = tested on: SK-MEL-2 melanoma
# HOP-92 NSCLC = tested on: HOP-92 NSCLC
# NCI-H226 lung = tested on: NCI-H226 lung
# MALME-3M melanoma = tested on: MALME-3M melanoma
# HCT-15 colon = tested on: HCT-15 colon
# SW-620 colon = tested on: SW-620 colon
# IGROV1 ovarian = tested on: IGROV1 ovarian
# A549 NSCLC = tested on: A549 NSCLC
# EKVX NSCLC = tested on: EKVX NSCLC
# OVCAR-5 ovarian = tested on: OVCAR-5 ovarian
# LXFL 529 NSCLC = tested on: LXFL 529 NSCLC
# MOLT-4 leukemia = tested on: MOLT-4 leukemia
# HCT-116 colon = tested on: HCT-116 colon
# CAKI-1 renal = tested on: CAKI-1 renal
# KM20L2 colon = tested on: KM20L2 colon
# COLO 205 colon = tested on: COLO 205 colon
# OVCAR-8 ovarian = tested on: OVCAR-8 ovarian
# CCRF-CEM leukemia = tested on: CCRF-CEM leukemia
# ACHN renal = tested on: ACHN renal
# SNB-78 CNS = tested on: SNB-78 CNS
# OVCAR-4 ovarian = tested on: OVCAR-4 ovarian
# OVCAR-3 ovarian = tested on: OVCAR-3 ovarian
# HL-60(TB) leukemia = tested on: HL-60(TB) leukemia
# 786-0 renal = tested on: 786-0 renal
# SK-MEL-28 melanoma = tested on: SK-MEL-28 melanoma
# NCI-H522 lung = tested on: NCI-H522 lung
# K-562 leukemia = tested on: K-562 leukemia
# UO-31 renal = tested on: UO-31 renal
# HCC-2998 colon = tested on: HCC-2998 colon
# M14 melanoma = tested on: M14 melanoma
# HT29 colon = tested on: HT29 colon
# SF-539 CNS = tested on: SF-539 CNS
# TK-10 renal = tested on: TK-10 renal
# UACC-62 melanoma = tested on: UACC-62 melanoma
# HOP-62 NSCLC = tested on: HOP-62 NSCLC
# SN12C renal = tested on: SN12C renal
# NCI-H460 lung = tested on: NCI-H460 lung
# HOP-18 NSCLC = tested on: HOP-18 NSCLC
# SK-MEL-5 melanoma = tested on: SK-MEL-5 melanoma
# SNB-75 CNS = tested on: SNB-75 CNS
# KM12 colon = tested on: KM12 colon
# A498 renal = tested on: A498 renal
# UACC-257 melanoma = tested on: UACC-257 melanoma
# SF-268 CNS = tested on: SF-268 CNS
# SK-OV-3 ovarian = tested on: SK-OV-3 ovarian
# M19-MEL melanoma = tested on: M19-MEL melanoma
# U251 CNS = tested on: U251 CNS
# SF-295 CNS = tested on: SF-295 CNS
# RPMI-8226 leukemia = tested on: RPMI-8226 leukemia
# DMS 114 small cell lung = tested on: DMS 114 small cell lung
# LOX IMVI melanoma = tested on: LOX IMVI melanoma
# XF 498 CNS = tested on: XF 498 CNS
# RXF 393 renal = tested on: RXF 393 renal
# SR leukemia = tested on: SR leukemia
# DLD-1 colon = tested on: DLD-1 colon
# DMS 273 small cell lung = tested on: DMS 273 small cell lung
smiles,measurement,setting,value
Cc1nc(C(N)=S)sc1C(=O)CC(=O)C(=O)Nc1c(C(C)C)cccc1C(C)C,TGI,SNB-19 CNS,> 100 µM
same,TGI,NCI-H23 lung,88.9 µM
same,TGI,SK-MEL-2 melanoma,> 100 µM
same,TGI,HOP-92 NSCLC,92.9 µM
same,TGI,NCI-H226 lung,> 100 µM
same,TGI,MALME-3M melanoma,> 100 µM
same,TGI,HCT-15 colon,> 100 µM
same,TGI,SW-620 colon,> 100 µM
same,TGI,IGROV1 ovarian,> 100 µM
same,TGI,A549 NSCLC,> 100 µM
same,TGI,EKVX NSCLC,> 100 µM
same,TGI,OVCAR-5 ovarian,> 100 µM
same,TGI,LXFL 529 NSCLC,> 100 µM
same,TGI,MOLT-4 leukemia,> 100 µM
same,TGI,HCT-116 colon,> 100 µM
same,TGI,CAKI-1 renal,> 100 µM
same,TGI,KM20L2 colon,> 100 µM
same,TGI,COLO 205 colon,> 100 µM
same,TGI,OVCAR-8 ovarian,> 100 µM
same,TGI,CCRF-CEM leukemia,> 100 µM
same,TGI,ACHN renal,> 100 µM
same,TGI,SNB-78 CNS,> 100 µM
same,TGI,OVCAR-4 ovarian,> 100 µM
same,TGI,OVCAR-3 ovarian,42 µM
same,TGI,HL-60(TB) leukemia,> 100 µM
same,TGI,786-0 renal,> 100 µM
same,TGI,SK-MEL-28 melanoma,> 100 µM
same,TGI,NCI-H522 lung,46.9 µM
same,TGI,K-562 leukemia,> 100 µM
same,TGI,UO-31 renal,> 100 µM
same,TGI,HCC-2998 colon,> 100 µM
same,TGI,M14 melanoma,> 100 µM
same,TGI,HT29 colon,> 100 µM
same,TGI,SF-539 CNS,86.3 µM
same,TGI,TK-10 renal,> 100 µM
same,TGI,UACC-62 melanoma,> 100 µM
same,TGI,HOP-62 NSCLC,> 100 µM
same,TGI,SN12C renal,> 100 µM
same,TGI,NCI-H460 lung,> 100 µM
same,TGI,HOP-18 NSCLC,> 100 µM
same,TGI,SK-MEL-5 melanoma,> 100 µM
same,TGI,SNB-75 CNS,71.7 µM
same,TGI,KM12 colon,> 100 µM
same,TGI,A498 renal,> 100 µM
same,TGI,UACC-257 melanoma,> 100 µM
same,TGI,SF-268 CNS,> 100 µM
same,TGI,SK-OV-3 ovarian,> 100 µM
same,TGI,M19-MEL melanoma,> 100 µM
same,TGI,U251 CNS,> 100 µM
same,TGI,SF-295 CNS,85.4 µM
same,TGI,RPMI-8226 leukemia,> 100 µM
same,TGI,DMS 114 small cell lung,64.6 µM
same,TGI,LOX IMVI melanoma,> 100 µM
same,TGI,XF 498 CNS,48.8 µM
same,TGI,RXF 393 renal,> 100 µM
same,TGI,SR leukemia,> 100 µM
same,TGI,DLD-1 colon,> 100 µM
CN(C(=O)c1cccs1)C(=S)N1CCN(c2ccccn2)CC1,TGI,SNB-19 CNS,> 100 µM
same,TGI,NCI-H23 lung,> 100 µM
same,TGI,SK-MEL-2 melanoma,> 100 µM
same,TGI,HOP-92 NSCLC,> 100 µM
same,TGI,NCI-H226 lung,> 100 µM
same,TGI,MALME-3M melanoma,> 100 µM
same,TGI,HCT-15 colon,> 100 µM
same,TGI,DMS 273 small cell lung,> 100 µM
same,TGI,SW-620 colon,> 100 µM
same,TGI,IGROV1 ovarian,> 100 µM
same,TGI,A549 NSCLC,> 100 µM
same,TGI,OVCAR-5 ovarian,> 100 µM
same,TGI,LXFL 529 NSCLC,> 100 µM
same,TGI,MOLT-4 leukemia,> 100 µM
same,TGI,HCT-116 colon,> 100 µM
same,TGI,CAKI-1 renal,> 100 µM
same,TGI,KM20L2 colon,> 100 µM
same,TGI,COLO 205 colon,> 100 µM
same,TGI,OVCAR-8 ovarian,> 100 µM
same,TGI,CCRF-CEM leukemia,> 100 µM
same,TGI,ACHN renal,> 100 µM
same,TGI,SNB-78 CNS,> 100 µM
same,TGI,OVCAR-4 ovarian,> 100 µM
same,TGI,OVCAR-3 ovarian,> 100 µM
same,TGI,HL-60(TB) leukemia,> 100 µM
same,TGI,786-0 renal,> 100 µM
same,TGI,SK-MEL-28 melanoma,> 100 µM
same,TGI,NCI-H522 lung,> 100 µM
same,TGI,K-562 leukemia,> 100 µM
same,TGI,UO-31 renal,> 100 µM
same,TGI,M14 melanoma,> 100 µM
same,TGI,HT29 colon,> 100 µM
same,TGI,SF-539 CNS,> 100 µM
same,TGI,TK-10 renal,> 100 µM
same,TGI,UACC-62 melanoma,> 100 µM
same,TGI,HOP-62 NSCLC,> 100 µM
same,TGI,SN12C renal,> 100 µM
same,TGI,NCI-H460 lung,> 100 µM
same,TGI,HOP-18 NSCLC,> 100 µM
same,TGI,SK-MEL-5 melanoma,> 100 µM
same,TGI,SNB-75 CNS,> 100 µM
same,TGI,KM12 colon,> 100 µM
same,TGI,UACC-257 melanoma,> 100 µM
same,TGI,SF-268 CNS,> 100 µM
same,TGI,SK-OV-3 ovarian,> 100 µM
same,TGI,M19-MEL melanoma,> 100 µM
same,TGI,U251 CNS,> 100 µM
same,TGI,SF-295 CNS,> 100 µM
same,TGI,RPMI-8226 leukemia,> 100 µM
same,TGI,DMS 114 small cell lung,> 100 µM
same,TGI,LOX IMVI melanoma,> 100 µM
same,TGI,XF 498 CNS,> 100 µM
same,TGI,RXF 393 renal,> 100 µM
same,TGI,DLD-1 colon,> 100 µM
COC(=O)C1CCC(=O)C(Sc2ccccc2)C1 (stereo not drawn),TGI,SNB-19 CNS,> 100 µM
same,TGI,NCI-H23 lung,> 100 µM
same,TGI,HOP-92 NSCLC,> 100 µM
same,TGI,NCI-H226 lung,> 100 µM
same,TGI,HCT-15 colon,> 100 µM
same,TGI,DMS 273 small cell lung,> 100 µM
same,TGI,SW-620 colon,> 100 µM
same,TGI,IGROV1 ovarian,> 100 µM
same,TGI,A549 NSCLC,> 100 µM
same,TGI,EKVX NSCLC,> 100 µM
same,TGI,OVCAR-5 ovarian,> 100 µM
same,TGI,LXFL 529 NSCLC,> 100 µM
same,TGI,MOLT-4 leukemia,> 100 µM
same,TGI,HCT-116 colon,> 100 µM
same,TGI,CAKI-1 renal,> 100 µM
same,TGI,KM20L2 colon,> 100 µM
same,TGI,COLO 205 colon,> 100 µM
same,TGI,OVCAR-8 ovarian,> 100 µM
same,TGI,CCRF-CEM leukemia,80 µM
same,TGI,ACHN renal,> 100 µM
same,TGI,SNB-78 CNS,> 100 µM
same,TGI,OVCAR-4 ovarian,> 100 µM
same,TGI,OVCAR-3 ovarian,> 100 µM
same,TGI,HL-60(TB) leukemia,> 100 µM
same,TGI,SK-MEL-28 melanoma,> 100 µM
same,TGI,NCI-H522 lung,> 100 µM
same,TGI,K-562 leukemia,> 100 µM
same,TGI,UO-31 renal,99 µM
same,TGI,M14 melanoma,> 100 µM
same,TGI,HT29 colon,> 100 µM
same,TGI,SF-539 CNS,> 100 µM
same,TGI,TK-10 renal,> 100 µM
same,TGI,UACC-62 melanoma,> 100 µM
same,TGI,SN12C renal,> 100 µM
same,TGI,NCI-H460 lung,> 100 µM
same,TGI,HOP-18 NSCLC,> 100 µM
same,TGI,SK-MEL-5 melanoma,> 100 µM
same,TGI,SNB-75 CNS,96.4 µM
same,TGI,KM12 colon,> 100 µM
same,TGI,A498 renal,> 100 µM
same,TGI,UACC-257 melanoma,> 100 µM
same,TGI,SF-268 CNS,> 100 µM
same,TGI,SK-OV-3 ovarian,> 100 µM
same,TGI,M19-MEL melanoma,> 100 µM
same,TGI,U251 CNS,> 100 µM
same,TGI,SF-295 CNS,> 100 µM
same,TGI,RPMI-8226 leukemia,> 100 µM
same,TGI,DMS 114 small cell lung,> 100 µM
same,TGI,LOX IMVI melanoma,> 100 µM
same,TGI,XF 498 CNS,> 100 µM
same,TGI,RXF 393 renal,> 100 µM
same,TGI,DLD-1 colon,> 100 µM
